This note sets out measurements from patent US20250257064A1, “TRIFLUOROMETHYL-SUBSTITUTED SULFONAMIDE AS BCL-2-SELECTIVE INHIBITOR” (Chia Tai Tianqing Pharmaceutical Group Co., Ltd., priority 2018, published 2025).

One series has as its target T1, BCL-2/BAK (Homo sapiens, UniProt P10415).
T1 construct: purchased Cisbio
The experiment in a line: Screening on inhibitory activity for BCL-2/BAK binding (Cisbio HTRF kit). A digest of the protocol:
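HTRF competition assay: Tag1-BCL-2 and Tag2-BAK working dilutions were 5 nM and 120 nM. Compound (200–0.0488 nM final, 4-fold, 7 points, duplicates) was incubated with the proteins for 15 min at 25 °C, then with Eu-cryptate/XL665 antibodies for ≥2 h at 25 °C. IC50 was derived from a four-parameter fit.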

A short description of series [1]: In vitro stability in rat liver microsomes. The series is classed as in vitro ADME. The settings on record: 1 μM. How it is done:
(§1) Experimental Example 3: In Vitro Stability in Liver Microsome
(§2) 300 μL of the final incubation system contains 30 μL of liver microsomes (protein concentration: 5 mg/mL), 30 μL of NADPH+MgCl2, 3 μL of the test compound (in acetonitrile), and 237 μL of PBS buffer (pH 7.4), wherein the proportion of the organic solvent (acetonitrile) is 1% (volume ratio). Two duplicate samples were prepared for each specie (mouse, rat and human), and each sample was 0.3 mL. Each tube which was added with 270 μL of a mixed solution of substrate and enzyme, and NADPH, after being pre-incubated at 37° C. for 5 min, was added with 30 μL of NADPH+MgCl2 and mixed. Then 50 μL of the mixture was taken at 0 min, 15 min, 30 min and 60 min, and added with 300 μL of glacial acetonitrile containing an internal standard to terminate the reaction.
(§3) 50 μL of the incubated sample was added with 300 μL of glacial acetonitrile containing an internal standard (20 ng/mL diazepam) for precipitation, vortexed for 5 min, and centrifuged (13,000 rpm, 20° C.) for 10 min. 70 μL of supernatant was taken and diluted with 70 μL of ultrapure water. After being mixed well, 1 μL of the resulting sample was injected for analysis.
(In general: Microsomes from liver hold many membrane-bound enzymes, among them those of drug oxidation.)

Series [2] is described as follows: In vitro stability in human liver microsomes. The following applies: 1 μM. The series is classed as in vitro ADME. As to the method:
as §1, §2, §3

The next series is described as follows: Pharmacokinetics in rats. The settings on record: Sprague-Dawley, rat, plasma, po, SD rats, IG 5 mg/kg; for AUC(0-t): read-out: AUC(0-24 h); for MRT last: read-out: MRT(0-t). The series is classed as in vivo. How it is done: 4.1 Pharmacokinetics in Rats
SD rats weighing 180-220 g were randomly grouped with 3 rats in each group after 3-5 days of adaptive feeding, and intragastrically administered with compounds 1-1 and 8-1 at a dosage of 5 mg/kg.
The animals to be tested (SD rats) were fasted for 12 h before administration and fed 4 h after administration, and water was freely drunk before, after and during the experiment.
After intragastric administration, about 0.2 mL of blood was collected from the orbit at 0 min, 15 min, 30 min, 1 h, 2 h, 4 h, 6 h, 8 h, 10 h and 24 h, and after anticoagulation with EDTA-K2, blood samples were transferred to a centrifuge within 30 min, and centrifuged at 4000 rpm for 10 min at 4° C. to separate the plasma. All plasma samples were collected and immediately stored at −20° C. for testing.
50 μL of the plasma sample to be tested was added with 300 μL of acetonitrile solution containing an internal standard (20 mg/mL diazepam), shaken and mixed well for 5 min, and centrifuged at 13,000 rpm for 10 min. 75 μL of supernatant was taken and diluted with 75 μL of ultrapure water. After being mixed well, 2 μL of the resulting sample was taken for LC/MS/MS determination, and a chromatogram was recorded.
Oral exposure of the compounds disclosed herein was evaluated by in vivo pharmacokinetic experiments in rats.

Series [3] concerns human platelet Caspase-3 activity. The experiment in a line: Human platelet toxicity experiment (Caspase-3 activity assay). The series is classed as cell-based. The following applies: compound concentration 1 μM, 90 min; data normalized, reference ABT-199. As to the method: Experimental Example 6: Human Platelet Toxicity Experiment (Caspase-3 Activity Assay)
10 mL of human whole blood was collected using a heparin sodium anticoagulation tube, mixed well by turning upside down, and centrifuged at 90 g for 10 min. The supernatant was collected and centrifuged at 1950 g for 10 min. The supernatant was discarded, and the residue was resuspended in 4 mL of PBS, and centrifuged at 1190 g for 5 min, and the procedure was repeated once. The supernatant was discarded, and the platelets were resuspended in PBS and adjusted to the density of 2-3×10^8 cells/mL. Cells were seeded into a 96-well plate at a density of 2-3×10^7 cells/mL and at 100 μL/well. 50 μL of control buffer was added to each negative control well, and 50 μL of compound at a corresponding concentration was added to each compound well, so that the final concentration of the compound was 2.5 μM, 2 μM, 1 μM or 0.5 μM, followed by incubation in an incubator at 37° C. for 90 min. The liquids in the 96-well plate were transferred to 1.5 mL centrifuge tubes, respectively. The tubes were centrifuged at 4° C. and 6000 g for 5 min, and placed on ice for later use after the supernatant was discarded. 5× lysis buffer was diluted into 1× lysis buffer with water in the kit, and protease inhibitor cocktail was added at a 1:200 ratio to prepare a lysis mixture for later use. 40 μL of lysis mixture was added to each centrifuge tube, and the platelets at the bottom were resuspended using a pipette. The suspension was lysed on ice for 15-20 min and centrifuged at 4° C. and 14,000 g for 10 min. The sample was sub-packaged for later use. 10× assay buffer was diluted into 1× assay buffer with water in the kit, and substrate Ac-DEVD-AMC was added at a 1:600 ratio to prepare a reaction mixture. 5 μL of assay buffer and 40 μL of reaction mixture were added to each blank control well. 5 μL of control platelet lysate and 40 μL of reaction mixture were added to each negative control well. 5 μL of platelet lysate and 40 μL of reaction mixture were added to each compound well. In this procedure, 40 μL of reaction mixture was added at last. The resulting mixture was mixed gently, and the plate was read by a PE Envision multi-functional microplate reader (excitation: 360 nm, emission: 460 nm) once every 10 min for 6 times. Caspase-3 activity was determined based on the intensity of the released AMC fluorescence, that is the slope of the fitted line to which each well corresponds represents Caspase activity (all data were normalized and the reference was ABT-199).

T1 sequence (P10415 whole entry, species assumed): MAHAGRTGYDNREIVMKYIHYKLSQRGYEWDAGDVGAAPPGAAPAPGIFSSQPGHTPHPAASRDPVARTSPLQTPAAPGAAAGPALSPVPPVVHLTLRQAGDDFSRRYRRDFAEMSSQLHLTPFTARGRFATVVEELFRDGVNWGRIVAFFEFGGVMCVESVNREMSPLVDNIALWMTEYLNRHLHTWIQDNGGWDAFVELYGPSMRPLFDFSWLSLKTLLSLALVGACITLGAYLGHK

As usually defined, the IC50 is the midpoint of a concentration-inhibition curve. Higher therefore signals a need for much substance. Usually AUC(0-inf) stands for the area under the concentration-time curve extrapolated to infinity. Read a low AUC(0-inf) as less exposure. One may read the Cmax as the highest concentration seen after dosing. One may read the Tmax as the time from dosing to the highest level. As a reminder, the half-life is how long it takes for the measured level to halve. High values mean slow decline, low ones rapid decline. At BCL-2/BAK, `CC1(C)CCC(CN2CCN(c3ccc(C(=O)NS(=O)(=O)c4ccc(NCC5CCOCC5)c([N+](=O)[O-])c4)c(Oc4cnc5[nH]ccc5c4)c3)CC2)=C(c2ccc(C(F)(F)F)cc2Cl)C1` [Compound 1-1, 4-(4-{[2-(2-chloro-4-trifluoromethylphenyl)-4,4-dimethylcyclohex-1-enyl]methyl}-piperazin-1-yl)-N-({3-nitro-4-[(tetrahydro-2H-pyran-4-ylmethyl)amino]phenyl}sulfonyl)-2-(1H-pyrrolo[2,3-b]pyridin-5-yloxy)-benzamide] returned a 50% inhibitory concentration (IC50) of 2.7 nM. Also, the “Rat Residual content after 60 min (%)” value in series [1] came to 88.4%. Further, in series [2], the “Human Residual content after 60 min (%)” value was determined as 70.8%. In addition, in “Pharmacokinetics in rats”, the AUC(0-inf) is 4460 ± 1340 ng·h/mL, the highest level (Cmax) was 378 ± 83.5 ng/mL, the Tmax came to 4 h and the half-life was 8.73 ± 0.31 h. In the series “Pharmacokinetics in rats”, the AUC(0-t) turned out to be 3700 ± 848 ng·h/mL and the MRT last stood at 8.95 ± 4.99 h. For the same compound, the “human platelet Caspase-3 activity, Slope” value in series [3] amounted to 0.67.
For `CC1(C)CCC(CN2CCN(c3ccc(C(=O)NS(=O)(=O)c4ccc(NC[C@H]5COCCO5)c([N+](=O)[O-])c4)c(Oc4cnc5[nH]ccc5c4)c3)CC2)=C(c2ccc(C(F)(F)F)cc2Cl)C1` [Compound 8-1], the IC50 at BCL-2/BAK came to 2.8 nM. Moreover, the “Rat Residual content after 60 min (%)” value in series [1] is listed as 90.9%. Besides, the “Human Residual content after 60 min (%)” value in series [2] was determined as 86.3%. Further, in “Pharmacokinetics in rats”, the AUC(0-inf) was determined as 6560 ± 1800 ng·h/mL, the Cmax amounted to 739 ± 226 ng/mL, the Tmax is 4 h and the half-life was 7.62 ± 2.78 h. For the same compound, in “Pharmacokinetics in rats”, the AUC(0-t) amounted to 5970 ± 2020 ng·h/mL and the MRT last amounted to 7.35 ± 0.45 h. The “human platelet Caspase-3 activity, Slope” value in series [3] is on record as 0.59.
